“Also recorded” adds a separate entry of the source. Square brackets hold non-standard residues; d marks the D form. Peptide text beside a SMILES is read from it. Dmt = Cc1cc(O)cc(C)c1C[C@H](N)C(=O)O; dOrn = NCCC[C@@H](N)C(=O)O
Legend:
[1] = tested on: Excised Sprague-Dawley rat hearts; assay: Modified Langendorff rat heart model, ischemia/reperfusion with peptide in the reperfusion buffer (Example 1); conditions: 1 μM peptide in Krebs buffer during 2 hours reperfusion after 20 min global no-flow ischemia; compared to controls
Description: (§1) The Langendorff rodent heart model is widely employed in studies of myocardial function and responses to injury (e.g., ischemia). For whole-heart studies, male Sprague-Dawley rats (7-9 weeks old) were injected with pentobarbital (35 mg/kg, ip injection) and hearts were excised with midline thoracotomy. The aortas were secured around a cannula of a modified Langendorff apparatus and retrogradely perfused (perfusion pressure of 75 mm Hg) with a modified Krebs-Henseleit buffer containing (in mM): 118 NaCl, 24 NaHCO3, 4.75 KCl, 1.2 KH2PO4, 1.2 MgSO4, 2.0 CaCl2, and 10 glucose (gassed with 95/5% O2/CO2). Hearts were bathed in a buffer-filled perfusion chamber maintained at 37° C. for the duration of the experiments. Following the initiation of perfusion, hearts were instrumented for the simultaneous observation of mechanical and electrical function. A buffer-filled latex balloon (size 5, Harvard Apparatus, Holliston, Mass., USA), calibrated at the beginning of each day using a digital manometer, was inserted into the left ventricle (via the mitral valve) for the measurement of left ventricular developed pressure (LVDP), with balloon volume adjusted to establish a diastolic pressure of 5-8 mm Hg. Three electrodes were placed into the buffer filled perfusion chamber for the measurement of the volume-conducted electrocardiogram (ECG). Coronary flow rates were monitored constantly with a flow probe (Transconic Systems, Ithaca, N.Y., USA) connected in series with the perfusion line, and normalized to heart wet weight (in grams) at the end of each experiment. All physiological parameters were continuously monitored and stored on a personal computer using commercially available software (Chart, AD Instruments, Colorado Springs, Colo., USA). Heart rate was calculated using the LVDP trace, and maximal rates of contraction(+dP/dt) and relaxation (−dP/dt) were calculated using the derivative of the LVDP trace.
Following a 10 minute baseline period, ischemia/reperfusion was initiated. Hearts were exposed to global no-flow ischemia by stopping perfusion for 20 min. At the end of the index ischemia, static buffer from the perfusion lines was washed out (via an accessory port proximal to the aortic cannula), and reperfusion ensued for 2 hours either with Krebs buffer alone (control) or Krebs buffer containing an experimental peptide at a concentration of 1 μM. Peptides tested included D-Arg-D-Dmt-D-Lys-L-Phe-NH2 (SBT-46), D-Arg-L-DMT-L-Ala-L-Phe-NH2 (SBT-68), (Ac)-D-Arg-L-DMT-L-Lys-L-Phe-NH2 (SBT-85), D-Arg-L-Dmt-L-His-L-Phe-NH2(SBT-100), D-Arg-L-DMT-L-Orn-L-Phe-NH2 (SBT-102), D-Orn-L-DMT-L-Lys-L-Phe-NH2(SBT-131), D-(Amidine)Arg(propylamine)-L-DMT-L-Lys-L-Phe-NH2 (SBT-140), and D-Arg(butylamidine analog)-L-DMT-L-Lys-L-Phe-NH2(SBT-149). At the end of reperfusion, the left ventricle was dissected, sliced into 5 mm-thick slices, incubated in 1% triphenyltetrazolium chloride (TTC) for 10 min (37° C.) and digitally photographed for subsequent infarct size analysis. Infarct size was expressed as a percentage of the left ventricle (% area at risk (AAR))(calculated using ImageJ software, NIH, Bethesda, Md., USA).

[2] = tested on: excised rat hearts; assay: Modified Langendorff rat heart model, peptide pre-treatment before ischemia/reperfusion (Example 2); conditions: hearts bathed 2 hours in 1 μM peptide before 20 min ischemia and 2 hours reperfusion; vs SBT-46, SBT-102 and controls; anticipated
Description: as §1, with “are” for “were”, “USA), which is” for “USA),”, “is” for “was”
Prior to the initiation of ischemia/reperfusion, the excised rat hearts are bathed in buffer containing an experimental peptide at a concentration of 1 μM or buffer alone (control) for two hours. The experimental peptide is selected from D-Arg-D-Dmt-D-Lys-L-Phe-NH2 (SBT-46), D-Arg-L-DMT-L-Ala-L-Phe-NH2 (SBT-68), (Ac)-D-Arg-L-DMT-L-Lys-L-Phe-NH2 (SBT-85), D-Arg-L-Dmt-L-His-L-Phe-NH2(SBT-100), D-Arg-L-DMT-L-Orn-L-Phe-NH2 (SBT-102), D-Orn-L-DMT-L-Lys-L-Phe-NH2(SBT-131), D-(Amidine)Arg(propylamine)-L-DMT-L-Lys-L-Phe-NH2(SBT-140), and D-Arg(butylamidine analog)-L-DMT-L-Lys-L-Phe-NH2 (SBT-149). Following a 10 minute baseline period, ischemia/reperfusion is initiated. Hearts are exposed to global no-flow ischemia by stopping perfusion for 20 min. At the end of the index ischemia, static buffer from the perfusion lines is washed out (via an accessory port proximal to the aortic cannula), and reperfusion ensues for 2 hours with Krebs buffer. At the end of reperfusion, the left ventricle is dissected, sliced into 5 mm-thick slices, incubated in 1% triphenyltetrazolium chloride (TTC) for 10 min (37° C.) and digitally photographed for subsequent infarct size analysis. Infarct size is expressed as a percentage of the left ventricle (% area at risk (AAR))(calculated using ImageJ software, NIH, Bethesda, Md., USA).

Compound	attenuation of cardiac ischemia injury and ischemia-reperfusion injury [1]	infarct size expressed as a percentage of area at risk (AAR) [1]	left ventricular developed pressure (LVDP) [1]	maximal rates of contraction (+dP/dt) [1]	maximal rates of relaxation (−dP/dt) [1]	LVDP [2]	infarct size [2]	maximal rates of contraction (+dP/dt) [2]	maximal rates of relaxation (−dP/dt) [2]
Cc1cc(O)cc(C)c1C[C@H](NC(=O)[C@H](N)CCCNC(=N)N)C(=O)N[C@@H](Cc1cnc[nH]1)C(=O)N[C@@H](Cc1ccccc1)C(N)=O [SBT-100, D-Arg-L-Dmt-L-His-L-Phe-NH2] (H-[dR][Dmt]HF-NH2)	able to attenuate cardiac ischemia injury and ischemia-reperfusion injury; also recorded: attenuation of cardiac ischemia-reperfusion injury	reduced infarct size	increased LVDP	increased maximal rates of contraction	increased maximal rates of relaxation	increased LVDP	reduced infarct size	increased maximal rates of contraction	increased maximal rates of relaxation
D-Arg-L-Dmt-L-Orn-L-Phe-NH2 [SBT-102]	does not attenuate cardiac ischemia-reperfusion injury	did not reduce infarct size	did not reduce infarct size, increase LVDP	did not reduce infarct size, increase LVDP, or increase the maximal rates of contraction and relaxation	did not reduce infarct size, increase LVDP, or increase the maximal rates of contraction and relaxation				
Cc1cc(O)cc(C)c1C[C@H](NC(=O)[C@H](N)CCCN)C(=O)N[C@@H](CCCCN)C(=O)N[C@@H](Cc1ccccc1)C(N)=O [SBT-131, D-Orn-L-DMT-L-Lys-L-Phe-NH2] (H-[dOrn][Dmt]KF-NH2)	able to attenuate cardiac ischemia injury and ischemia-reperfusion injury; also recorded: attenuation of cardiac ischemia-reperfusion injury	reduced infarct size	increased LVDP	increased maximal rates of contraction	increased maximal rates of relaxation	increased LVDP	reduced infarct size	increased maximal rates of contraction	increased maximal rates of relaxation
Cc1cc(O)cc(C)c1C[C@H](NC(=O)[C@@H](CCCN)NC(=N)N)C(=O)N[C@@H](CCCCN)C(=O)N[C@@H](Cc1ccccc1)C(N)=O [SBT-140, D-(Amidine)Arg(propylamine)-L-DMT-L-Lys-L-Phe-NH2]	able to attenuate cardiac ischemia injury and ischemia-reperfusion injury; also recorded: attenuation of cardiac ischemia-reperfusion injury	reduced infarct size	increased LVDP	increased maximal rates of contraction	increased maximal rates of relaxation	increased LVDP	reduced infarct size	increased maximal rates of contraction	increased maximal rates of relaxation
D-Arg-D-Dmt-D-Lys-L-Phe-NH2 [SBT-46]	does not attenuate cardiac ischemia-reperfusion injury	did not reduce infarct size	did not reduce infarct size, increase LVDP	did not reduce infarct size, increase LVDP, or increase the maximal rates of contraction and relaxation	did not reduce infarct size, increase LVDP, or increase the maximal rates of contraction and relaxation				
Cc1cc(O)cc(C)c1C[C@H](NC(=O)[C@H](N)CCCNC(=N)N)C(=O)N[C@@H](C)C(=O)N[C@@H](Cc1ccccc1)C(N)=O [SBT-68, D-Arg-L-DMT-L-Ala-L-Phe-NH2] (H-[dR][Dmt]AF-NH2)	able to attenuate cardiac ischemia injury and ischemia-reperfusion injury; also recorded: attenuation of cardiac ischemia-reperfusion injury	reduced infarct size	increased LVDP	increased maximal rates of contraction	increased maximal rates of relaxation	increased LVDP	reduced infarct size	increased maximal rates of contraction	increased maximal rates of relaxation
Cc1cc(O)cc(C)c1C[C@H](NC(=O)[C@H](N)CCCCC(=N)N)C(=O)N[C@@H](CCCCN)C(=O)N[C@@H](Cc1ccccc1)C(N)=O [SBT-149, D-Arg(butylamidine analog)-L-DMT-L-Lys-L-Phe-NH2]	able to attenuate cardiac ischemia injury and ischemia-reperfusion injury; also recorded: attenuation of cardiac ischemia-reperfusion injury	reduced infarct size	increased LVDP	increased maximal rates of contraction	increased maximal rates of relaxation	increased LVDP	reduced infarct size	increased maximal rates of contraction	increased maximal rates of relaxation
